Data set [1] is described as follows: The compound was evaluated for the chemical solvolytic stability at a pH 3. It counts as physicochemical. The conditions noted are these: buffer.
The test system of a further data set is L1210. Briefly: In vitro cytotoxicity against L1210 murine leukemia cell lines. It counts as functional, cell-based. The conditions noted are these: Mus musculus.

pIC50: −log10 of the molar value.

Compound `Cc1c[nH]c2c1[C@@]13C[C@@H]1CN(C(=O)OC(C)(C)C)C3=CC2=O` yielded a T1/2 in data set [1] of 37 h. What is called half-life is the time in which the quantity being followed falls by half. The term pIC50 denotes −log10 of the IC50, conventionally taken in molar units. Lower therefore signals a large IC50. In the case of `COC(=O)c1cc2c([nH]1)C(=O)C=C1N(C(=O)OC(C)(C)C)C[C@H]3C[C@]123`, the half-life in data set [1] was 177 h. Also, in the data set with L1210, the negative-log IC50 (pIC50) was 8.22. In turn, `Cc1n[nH]c2c1C13CC1CN(C(=O)OC(C)(C)C)C3=CC2=O` (centres undefined) showed a half-life in data set [1] of 110 h. The same compound showed a negative-log IC50 (pIC50) in the data set on L1210 of 6.43. In the case of `Cc1n[nH]c2c1[C@]13C[C@H]1CN(C(=O)OC(C)(C)C)C3=CC2=O`, the negative-log IC50 (pIC50) in the data set with L1210 is 6.03.

In the data set with L1210, `Cc1n[nH]c2c1[C@@]13C[C@@H]1CN(C(=O)OC(C)(C)C)C3=CC2=O` gave a pIC50 of 6.69. In data set [1], `CC(C)(C)OC(=O)N1C[C@H]2C[C@@]23C1=CC(=O)c1ccccc13` had a half-life of 133 h. In the data set on L1210, this compound had a negative-log IC50 (pIC50) of 7.10.

The values above are taken from ChEMBL document CHEMBL1132676, “Resolution of a CPzI precursor, synthesis and biological evaluation of (+) and (-)-N-Boc-CPzI: a further validation of the relationship between chemical solvolytic stability and cytotoxicity” (Bioorg Med Chem Lett, 1999).
